Patent US20150141411A1, “SUBSTITUTED 3,4-DIHYDRO-2H-PYRIDO[1,2-A]PYRAZINE-1,6-DIONE DERIVATIVES USEFUL FOR THE TREATMENT OF (INTER ALIA) ALZHEIMER'S DISEASE” (Janssen Pharmaceuticals, Inc., priority 2012, published 2015)

How the values were obtained:
γ-secretase [1] = target: T1, γ-secretase (Homo sapiens, UniProt P49768); test: Screening for γ-secretase-modulating activity: Aβ42 in supernatant of SKNBE2 cells carrying hAPP 695 wild type (Alphalisa); type: cell-based; conditions: SKNBE2 human neuroblastoma cells carrying hAPP 695 wild type, overnight incubation, Aβ42 in cell supernatant
T1 construct: endogenous in cells; host or cells: SKNBE2 human neuroblastoma cells (carrying hAPP 695 wild type as substrate)
Method: (§1) Screening was carried out using SKNBE2 human neuroblastoma cells carrying the hAPP 695—wild type, grown in Dulbecco's Modified Eagle's Medium/Nutrient mixture F-12 (DMEM/NUT-mix F-12) (HAM) provided by Invitrogen (cat no. 10371-029) containing 5% Serum/Fe supplemented with 1% non-essential amino acids, 1-glutamine 2 mM, Hepes 15 mM, penicillin 50 U/ml (units/ml) en streptomycin 50 μg/ml. Cells were grown to near confluency.
(§2) The screening was performed using a modification of the assay as described in Citron et al (1997) Nature Medicine 3: 67. Briefly, cells were plated in a 384-well plate at 10^4 cells/well in Ultraculture (Lonza, BE12-725F) supplemented with 1% glutamine (Invitrogen, 25030-024), 1% non-essential amino acid (NEAA), penicillin 50 U/ml en streptomycin 50 μg/ml in the presence of test compound at different test concentrations. The cell/compound mixture was incubated overnight at 37° C., 5% CO2. The next day the media were assayed by two sandwich immuno-assays, for Aβ42 and Aβ total.
(§3) Aβtotal and Aβ42 concentrations were quantified in the cell supernatant using the Aphalisa technology (Perkin Elmer). Alphalisa is a sandwich assay using biotinylated antibody attached to streptavidin coated donorbeads and antibody conjugated to acceptor beads. In the presence of antigen, the beads come into close proximity. The excitation of the donor beads provokes the release of singlet oxygen molecules that trigger a cascade of energy transfer in the acceptor beads, resulting in light emission. To quantify the amount of Aβ42 in the cell supernatant, monoclonal antibody specific to the C-terminus of Aβ42 (JRF/cAβ42/26) was coupled to the receptor beads and biotinylated antibody specific to the N-terminus of Aβ (JRF/AβN/25) was used to react with the donor beads. To quantify the amount of Aβtotal in the cell supernatant, monoclonal antibody specific to the N-terminus of Aβ (JRF/AβN/25) was coupled to the receptor beads and biotinylated antibody specific to the mid region of Aβ (biotinylated 4G8) was used to react with the donor beads.
(§4) To obtain the values reported in Table 3, the data are calculated as percentage of the maximum amount of amyloid Beta 42 measured in the absence of the test compound. The sigmoidal dose response curves were analyzed using non-linear regression analysis with percentage of the control plotted against the log concentration of the compound. A 4-parameter equation was used to determine the IC50.

γ-secretase [2] = target: T1, γ-secretase; test: Screening for γ-secretase-modulating activity: Aβtotal in supernatant of SKNBE2 cells carrying hAPP 695 wild type (Alphalisa); type: cell-based; conditions: SKNBE2 human neuroblastoma cells carrying hAPP 695 wild type, overnight incubation, Aβtotal in cell supernatant
Method: as §1, §2, §3, §4

| SMILES | IC50 (γ-secretase [1]) [nM] | IC50 (γ-secretase [2]) [nM] |
| --- | --- | --- |
| Cc1cn(-c2ccc3n(c2=O)CCN(CCCC(C)(C)C)C3=O)cn1 [compound 15] | 2290 | > 10000 |
| CCCc1nccn1-c1ccc2n(c1=O)CCN(CCC1CC1)C2=O [compound 16] | > 10000 | > 10000 |
| CCCc1nccn1-c1ccc2n(c1=O)CCN(CC1CC1)C2=O [compound 17] | > 10000 | > 10000 |
| Cc1cn(-c2ccc3n(c2=O)CCN(Cc2ccccc2)C3=O)cn1 [compound 19] | 6760 | > 10000 |
| Cc1cn(-c2ccc3n(c2=O)C[C@@H](C)N(Cc2cccc(Cl)c2)C3=O)cn1 [compound 24] | 1100 | > 10000 |
| Cc1cn(-c2ccc3n(c2=O)C[C@@H](C2CC2)N(Cc2ccc(Cl)c(Cl)c2)C3=O)cn1 [compound 33] | 1660 | > 10000 |
| Cc1cn(-c2ccc3n(c2=O)CCN(Cc2cccc(Cl)c2F)C3=O)cn1 [compound 39] | 950 | > 10000 |
| Cc1cn(-c2ccc3n(c2=O)CCN(c2ccc(F)cc2C)C3=O)cn1 [compound 41] | > 10000 | > 10000 |
| Cc1cn(-c2ccc3n(c2=O)C[C@@H](CO)N(Cc2cc(C(F)(F)F)cc(C(F)(F)F)c2)C3=O)cn1 [compound 45] | 540 | > 10000 |
| Cc1cn(-c2ccc3n(c2=O)C[C@@H](CN(C)C)N(Cc2cc(C(F)(F)F)cc(C(F)(F)F)c2)C3=O)cn1 [compound 48] | 580 | > 10000 |
| CNC[C@@H]1Cn2c(ccc(-n3cnc(C)c3)c2=O)C(=O)N1Cc1cc(C(F)(F)F)cc(C(F)(F)F)c1 [compound 49] | 3390 | > 10000 |
| Cc1cn(-c2ccc3n(c2=O)CCN(C(c2cc(C(F)(F)F)cc(C(F)(F)F)c2)C2CCOCC2)C3=O)cn1 (centres unmarked) [compound 51] | 500 | > 10000 |
| COCC(c1cc(C(F)(F)F)cc(C(F)(F)F)c1)N1CCn2c(ccc(-n3cnc(C)c3)c2=O)C1=O (centres unmarked) [compound 54] | 1260 | > 10000 |
| Cc1cc(CN2CCn3c(ccc(-n4cnc(C)c4)c3=O)C2=O)cc(C(F)(F)F)c1 [compound 60] | 660 | > 10000 |
| Cc1cn(-c2ccc3n(c2=O)CCN(Cc2cccc(C(F)(F)F)c2Cl)C3=O)cn1 [compound 64] | 690 | > 10000 |
| COc1cccc(CN2CCn3c(ccc(-n4cnc(C)c4)c3=O)C2=O)c1 [compound 66] | 3890 | > 10000 |
| Cc1cn(-c2ccc3n(c2=O)C[C@@H](C)N(Cc2cccc(-n4nc(C)cc4C)c2)C3=O)cn1 [compound 83] | 1350 | > 10000 |
| Cc1cn(-c2ccc3n(c2=O)CCN(Cc2cccc(-c4ccccc4)c2)C3=O)c(C)n1 [compound 87] | 7760 | > 10000 |
| Cc1ccc2cc(CN3CCn4c(ccc(-n5cnc(C)c5)c4=O)C3=O)ccc2c1 [compound 94] | 490 | > 10000 |
| Cc1cn(-c2ccc3n(c2=O)CCN(Cc2nccc(OCC(F)(F)F)c2C)C3=O)cn1 [compound 98] | 2880 | > 10000 |
| Cc1cn(-c2ccc3n(c2=O)CCN(CCc2c[nH]c4ccccc24)C3=O)cn1 [compound 104] | > 10000 | > 10000 |
| Cc1nccn1-c1ccc2n(c1=O)CCN(Cc1cccc(-c3ccccc3)c1)C2=O [compound 108] | 4790 | > 10000 |
| O=C1c2ccc(-n3ccnc3)c(=O)n2CCN1Cc1cccc(-c2ccccc2)c1 [compound 109] | 2090 | > 10000 |
| Cc1cn(-c2ccc3n(c2=O)C[C@@H](C)N(Cc2ccc(C)c(-n4cccn4)c2)C3=O)cn1 [compound 114] | 1910 | > 10000 |
| Cc1cncn1-c1ccc2n(c1=O)CCCN(Cc1ccc(Cl)c(Cl)c1)C2=O [compound 122] | > 10000 | > 10000 |
| Cc1cn(-c2ccc3n(c2=O)C[C@@H](C)N(Cc2cc(F)cc(OC(F)(F)F)c2)C3=O)cn1 [compound 139] | 950 | > 10000 |
| Cc1cn(-c2c(C)cc3n(c2=O)C[C@@H](C)N(Cc2cc(C(F)(F)F)cc(C(F)(F)F)c2)C3=O)cn1 [compound 161] | 790 | > 10000 |
| Cc1cn(-c2ccc3n(c2=O)CC(C(C)O)N(Cc2cc(C(F)(F)F)cc(C(F)(F)F)c2)C3=O)cn1 (centres unmarked) [compound 167] | 1200 | > 10000 |
| C[C@@H]1Cn2c(ccc(-n3ccnc3)c2=O)C(=O)N1Cc1cc(C(F)(F)F)cc(C(F)(F)F)c1 [compound 173] | 1260 | > 10000 |
| Cc1cn(-c2ccc3n(c2=O)C[C@@H](C)N(CCc2ccccc2)C3=O)cn1 [compound 176] | 1550 | > 10000 |

Continued, values first:

| IC50 (γ-secretase [1]) [nM] | IC50 (γ-secretase [2]) [nM] | SMILES |
| --- | --- | --- |
| 260 | > 10000 | COC[C@@H]1Cn2c(ccc(-n3cnc(C)c3)c2=O)C(=O)N1Cc1cc(C(F)(F)F)cc(C(F)(F)F)c1 [compound 47] |
| 480 | > 10000 | Cc1cn(-c2ccc3n(c2=O)C[C@@H](C)N(Cc2cccc(C(F)(F)F)c2C)C3=O)cn1 [compound 61] |
| 280 | > 10000 | Cc1cn(-c2ccc3n(c2=O)C[C@@H](C)N(Cc2cc(C(F)(F)F)ccc2Cl)C3=O)cn1 [compound 71] |
| 190 | > 10000 | Cc1cn(-c2ccc3n(c2=O)C[C@@H](C)N(Cc2cc(C(F)(F)F)ccc2C)C3=O)cn1 [compound 72] |
| 190 | > 10000 | CCOCc1cc(CN2C(=O)c3ccc(-n4cnc(C)c4)c(=O)n3C[C@H]2C)cc(C(F)(F)F)c1 [compound 76] |
| 190 | > 10000 | COc1cc(C)c(CN2C(=O)c3ccc(-n4cnc(C)c4)c(=O)n3C[C@H]2C)cc1C(C)C [compound 77] |
| 280 | > 10000 | Cc1cn(-c2ccc3n(c2=O)C[C@@H](C)N(Cc2cccc(OC(F)(F)F)c2)C3=O)cn1 [compound 79] |
| 220 | > 10000 | Cc1cn(-c2ccc3n(c2=O)C[C@@H](C)N(Cc2cc(N4CCC(C(F)(F)F)CC4)ccc2Cl)C3=O)cn1 [compound 81] |
| 60 | > 10000 | Cc1cn(-c2ccc3n(c2=O)C[C@@H](C)N(Cc2ccc(Cl)c(N4CCCCC4)c2)C3=O)cn1 [compound 85] |
| 30 | > 10000 | Cc1cn(-c2ccc3n(c2=O)C[C@@H](C)N(Cc2cc(N4CCCCC4)cc(C(F)(F)F)c2)C3=O)cn1 [compound 86] |
| 190 | > 10000 | Cc1cn(-c2ccc3n(c2=O)CCC(C)N(Cc2cc(C(F)(F)F)cc(C(F)(F)F)c2)C3=O)cn1 (centres unmarked) [compound 123] |
| 50 | > 10000 | Cc1cn(-c2ccc3n(c2=O)CC(C)N(Cc2c[nH]c4cc(Br)ccc24)C3=O)cn1 (centres unmarked) [compound 125] |
| 30 | > 10000 | Cc1cn(-c2ccc3n(c2=O)C[C@@H](C)N(Cc2cn(C)c4ccc(Cl)cc24)C3=O)cn1 [compound 137] |
| 40 | > 10000 | Cc1cn(-c2ccc3n(c2=O)C[C@@H](C)N(Cc2c[nH]c4ccc(Cl)cc24)C3=O)cn1 [compound 138] |
| 70 | > 10000 | Cc1cn(-c2ccc3n(c2=O)C[C@@H](C)N(Cc2cc(Br)cc(OC(F)(F)F)c2)C3=O)cn1 [compound 152] |
| 30 | > 10000 | Cc1cn(-c2ccc3n(c2=O)C[C@@H](C)N(CCc2cc(OC(C)C)cc(C(F)(F)F)c2)C3=O)cn1 [compound 156] |
| 280 | > 10000 | Cc1cn(-c2cc(Cl)c3n(c2=O)C[C@@H](C)N(Cc2cc(C(F)(F)F)cc(C(F)(F)F)c2)C3=O)cn1 [compound 159] |
| 100 | > 10000 | Cc1cn(-c2ccc3n(c2=O)C[C@@H](C)N(Cc2ccc(C)c(OCC4CC4)c2)C3=O)cn1 [compound 162] |
| 170 | > 10000 | Cc1cn(-c2ccc3n(c2=O)C[C@@H](C)N(Cc2cc(OC(C)C)c(Cl)cc2F)C3=O)cn1 [compound 163] |
| 20 | > 10000 | Cc1cn(-c2ccc3n(c2=O)C[C@@H](C)N(Cc2csc4ccc(Cl)cc24)C3=O)cn1 [compound 165] |
| 40 | > 10000 | Cc1cn(-c2ccc3n(c2=O)C[C@@H](C)N(Cc2ccc(C(F)(F)F)c(N4CCCCC4)c2)C3=O)cn1 [compound 171] |
| 10 | 5000 | Cc1cn(-c2ccc3n(c2=O)C[C@@H](C)N(Cc2cn(C)c4cc(F)c(C5CC5)cc24)C3=O)cn1 [compound 174] |
